Test results as given in publication PMC12777510 (Chempluschem, 2025).
≈ marks a conversion by molar mass, not a printed value. Like-named read-outs stand apart in the source and are kept apart here. *1 amine or outer side, *2 acyl side, *3 side chain or, on linkers, in order; H or OH if unused. Where a SMILES comes first, the peptide text is derived from it. [ ]: non-standard residue; d: D form. X2 = O=C([C@@H](Cc1cc(C(F)(F)F)c(O)c(C(F)(F)F)c1)N[*:1])[*:2]; Aminotetradecanoyl(3R) = CCCCCCCCCCC[C@H](CC(=O)[*:2])N[*:1]; dTyr(3-CF3) = N[C@H](Cc1ccc(O)c(C(F)(F)F)c1)C(=O)O; X1 = O=C(C[C@@H](CCCCCCCCCCC(F)(F)F)N[*:1])[*:2]

Assays:
[1] = system: Fusarium graminearum; experiment: microbe, parasite or virus in culture; details: 48 h, pH 7, read-out: MIC F. graminearum
[2] = system: Candida albicans; experiment: microbe, parasite or virus in culture; details: 24 h, pH 7, read-out: MIC C. albicans
[3] = system: Fusarium graminearum; details: broth microdilution, RPMI 1640 pH 7, 96-well plates, 28 °C for 48 h, no agitation, visual read-out, lowest concentration with complete inhibition of growth; DMSO max 2.5% v/v; triplicate
[4] = system: Candida albicans; details: for MIC C. albicans: 24 h, pH 7
[5] = 19F NMR samples in D2O containing Saboraud Dextrose Broth (30 g/L), 5% d6-DMSO added to avoid precipitation
[6] = HPLC retention times compared to parent iturin A2, result in words

Compound	MIC [1]	MIC [2]	MIC F. graminearum [3]	change in bioactivity against C. albicans compared to iturin A2 [4]	MIC C. albicans [4]	aqueous solubility [5]	relative lipophilicity (hydrophobicity) by HPLC retention, compared to the natural lipopeptide [6]	relative lipophilicity (hydrophobicity) by HPLC retention, compared to the natural lipopeptide ([6]; listed as o‐CF3‐Tyr)
C[C@@H]1[C@H](O)[C@@H](C)/C=C/C=C/C=C/C=C/C=C/C=C/C=C/[C@H](O[C@@H]2O[C@H](C)[C@@H](O)[C@H](N)[C@@H]2O)C[C@@H]2O[C@](O)(C[C@@H](O)C[C@@H](O)[C@H](O)CC[C@@H](O)C[C@@H](O)CC(=O)O[C@H]1C)C[C@H](O)[C@H]2C(=O)O [Amphotericin B]	4 µM (≈ 3.7 µg/mL)	2 µM (≈ 1.85 µg/mL)						
NC(=O)CC[C@@H]1NC(=O)[C@@H](CC(N)=O)NC(=O)[C@@H](Cc2ccc(O)cc2)NC(=O)[C@H](CC(N)=O)NC(=O)C[C@@H](CCCCCCCCCCC(F)(F)F)NC(=O)[C@H](CO)NC(=O)[C@@H](CC(N)=O)NC(=O)[C@@H]2CCCN2C1=O [Compound 9, ω‐CF3 iturin A2] (cyclo(N[dY][dN]QP[dN]S[X1]))			64 µM (≈ 70.2 µg/mL)	completely retains the bioactivity	64 µM (≈ 70.2 µg/mL)			
CCCCCCCCCCC[C@@H]1CC(=O)N[C@@H](CC(N)=O)C(=O)N[C@H](Cc2ccc(O)c(C(F)(F)F)c2)C(=O)N[C@H](CC(N)=O)C(=O)N[C@@H](CCC(N)=O)C(=O)N2CCC[C@H]2C(=O)N[C@H](CC(N)=O)C(=O)N[C@@H](CO)C(=O)N1 [Compound 10, o‐CF3‐Tyr iturin A2] (cyclo(N[dTyr(3-CF3)][dN]QP[dN]S[Aminotetradecanoyl(3R)]))			128 µM (≈ 142 µg/mL)		128 µM (≈ 142 µg/mL)	50 µM (≈ 55.6 µg/mL)	pronounced increase in lipophilicity	increased proportionally to the increase in fluorine content
CCCCCCCCCCC[C@@H]1CC(=O)N[C@@H](CC(N)=O)C(=O)N[C@H](Cc2cc(C(F)(F)F)c(O)c(C(F)(F)F)c2)C(=O)N[C@H](CC(N)=O)C(=O)N[C@@H](CCC(N)=O)C(=O)N2CCC[C@H]2C(=O)N[C@H](CC(N)=O)C(=O)N[C@@H](CO)C(=O)N1 [Compound 11, di‐o‐CF3‐Tyr iturin A2] (cyclo(N[X2][dN]QP[dN]S[Aminotetradecanoyl(3R)]))			>128 µM		>128 µM		increased proportionally to the increase in fluorine content	
CCCCCCCCCCC[C@@H]1CC(=O)N[C@@H](CC(N)=O)C(=O)N[C@H](Cc2ccc(O)cc2)C(=O)N[C@H](CC(N)=O)C(=O)N[C@@H](CCC(N)=O)C(=O)N2CCC[C@H]2C(=O)N[C@H](CC(N)=O)C(=O)N[C@@H](CO)C(=O)N1 [Synthetic iturin A2, iturin A2, reference compound] (cyclo(N[dY][dN]QP[dN]S[Aminotetradecanoyl(3R)]))			16 µM (≈ 16.7 µg/mL)		64 µM (≈ 66.8 µg/mL)			
